The values below come from patent publication US20090203750A1, “5-HT2C Receptor Agonists as Anorectic Agents” (priority 2005, published 2009).

Read-outs that look alike come from different tables or passages of the source.

One data set has as its target T1, human 5-HT2A receptor (Homo sapiens, UniProt P28223).
T1 construct: expressed in transfected cells; host or cells: HEK-293
Put plainly: Functional activity by Ca++-flux (intracellular calcium mobilization), 5-HT2A. The data set is classed as cell-based. Particulars: Ca++-flux, HEK-293 cells, NA = not active. As to the method:
The functional activity of the compounds for the human 5-HT2A, human 5-HT2B, and human 5-HT2C receptors is determined by measurement of Ca++-flux as detailed in the Examples, in transiently transfected HEK-293 cells and the results are summarized in Table I. Structures of compounds listed in Table I are given in Scheme 15.
The functional activity of compounds for the human 5-HT2A, human 5-HT2B, and human 5-HT2C receptors as agonists, partial agonists and antagonists is determined by measurement of Ca++-flux. The results are summarized in Table 1 where EC50 for different receptors are given (nM) and the ratio of activities 2A/2C and 2B/2C are also given. As noted above, other methods for assessing agonist/antagonist function of compounds for 5-HT2 family receptors are known in the art.
(§1) For these studies stably expressing lines of h5-HT2A, h5-HT2B, and h5-HT2C receptors are prepared in HEK-293 cells. For the h5-HT2A and h5-HT2C-INI receptors, stably expressing HEK-293 cell lines were constructed as previously described using a pIRES-NEO vector system (See: Rauser et al, J Pharmacol Exp Ther 299: 83-89, 2001).
(§2) Stable cell lines were plated with ˜40,000 cells/well into uncoated (3T3 cells) or poly-L-lysine coated (HEK293 cells) 96-well plates in DMEM supplemented with 5% dialyzed FBS. 16-24 hrs post-plating, the medium was aspirated and replaced with 30 μl/well of Calcium Assay Kit Component A Dye (Molecular Devices; Sunnyvale, Calif.) dissolved in 30 ml/bottle of assay buffer (2.5 mM probenecid, 20 mM Hepes, and 1× Hanks' Balanced Salt Solution (Invitrogen; Carlsbad, Calif.) (138 mM NaCl, 5.3 mM KCl, 1.3 mM CaCl2, 0.49 mM MgCl2, 0.41 mM MgSO4, 0.44 mM KH2PO4, 0.34 mM Na2HPO4) pH 7.4. Plates were incubated in the dye for 1 hr at 37° C. Dilutions were made in assay buffer as 2× stocks and added to 96-well drug plates. Fluorometric imaging was performed using a FlexStation II plate reader (Molecular Devices) reading the plate at 1.5 second intervals for 1 min. After establishing a fluorescent baseline (excitation at 485 nm and emission at 525 nm, using a […] cutoff), the FlexStation II automatically transferred 30 μl of 2× drug stocks from the drug plate to the cell plate at the 20 second time point with reading for another 40 seconds. Peak relative fluorescence units (RFU) were subtracted from baseline RFUs using SoftMax Pro (Molecular Devices) and values were imported into GraphPad Prism version 4.03 (GraphPad Software; San Diego, Calif.) for analysis. Ca++-flux studies are very convenient for initial screening of large numbers of compounds for agonist activity.
Compounds are resuspended in DMSO at a stock concentration of 2-15 mM and, for a typical agonist screen, are diluted in assay buffer to a final 2× concentration of 20 μM into drugs plates. Compounds are added in duplicate to cell plates using the FlexStation II as described to identify agonists, defined as having >10% of maximal 5-HT response. […] Generally, screens are performed twice with each determination being made in duplicate. Typical Z′-factor (Zhang et al., 1999) values for agonist screens ranged from 0.61-0.79 (5-HT2AR), 0.42-0.81 (5-HT2BR) and 0.38-0.72 (5-HT2CR); these Z′-factor values are adequate for screening studies in which N=2 determinations are made and the screens replicated for a total of N=4 determinations.
(§3) Compounds identified by primary screens to be agonists are subsequently used in concentration-response experiments to verify the initial observations and obtain agonist potencies. Concentration-response studies are performed in triplicate or quadruplicate at each concentration and repeated three times. Baseline-subtracted RFU values imported into GraphPad Prism are analyzed by non-linear regression to obtain pEC50 values, and normalized to maximal 5-HT response to obtain relative efficacies.
In general terms: Calcium assays in cells follow changes in intracellular calcium, usually with a dye or a luminescent sensor.

The target of another data set is T2, human 5-HT2B receptor (Homo sapiens, UniProt P41595).
T2 construct: expressed in transfected cells; host or cells: HEK293 (ATCC CRL-1573), retroviral infection with pBabepuro-FLAG-h5-HT2BR, polyclonal line
T2 sequence (P41595 whole entry): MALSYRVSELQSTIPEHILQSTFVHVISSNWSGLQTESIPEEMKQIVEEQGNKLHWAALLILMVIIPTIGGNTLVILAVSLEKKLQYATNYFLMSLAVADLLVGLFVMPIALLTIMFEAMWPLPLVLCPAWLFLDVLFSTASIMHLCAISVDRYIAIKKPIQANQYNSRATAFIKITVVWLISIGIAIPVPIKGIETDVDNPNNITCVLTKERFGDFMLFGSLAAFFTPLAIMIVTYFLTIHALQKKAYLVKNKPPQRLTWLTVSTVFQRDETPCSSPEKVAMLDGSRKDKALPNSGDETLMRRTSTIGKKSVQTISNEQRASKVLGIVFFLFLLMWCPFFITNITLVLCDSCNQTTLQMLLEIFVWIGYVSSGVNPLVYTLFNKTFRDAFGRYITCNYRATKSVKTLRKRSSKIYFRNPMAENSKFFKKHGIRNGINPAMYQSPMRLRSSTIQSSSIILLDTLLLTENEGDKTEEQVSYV
Put plainly: Functional activity by Ca++-flux (intracellular calcium mobilization), 5-HT2B. Format: cell-based.

In a further data set the target is T3, human 5-HT2C receptor (Homo sapiens, UniProt P28335).
T3 construct: expressed in transfected cells; host or cells: HEK-293
T3 sequence (P28335 33-458): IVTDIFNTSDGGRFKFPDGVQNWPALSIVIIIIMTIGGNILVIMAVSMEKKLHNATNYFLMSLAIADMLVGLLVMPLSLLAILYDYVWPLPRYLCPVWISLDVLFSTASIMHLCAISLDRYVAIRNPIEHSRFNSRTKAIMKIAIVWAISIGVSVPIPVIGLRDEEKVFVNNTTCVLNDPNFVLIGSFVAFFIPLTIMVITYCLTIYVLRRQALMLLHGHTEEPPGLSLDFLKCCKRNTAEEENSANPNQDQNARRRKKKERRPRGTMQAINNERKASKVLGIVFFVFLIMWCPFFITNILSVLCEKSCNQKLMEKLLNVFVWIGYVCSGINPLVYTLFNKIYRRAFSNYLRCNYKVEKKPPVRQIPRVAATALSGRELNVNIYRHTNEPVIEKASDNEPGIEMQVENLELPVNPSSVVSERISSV
Put plainly: Functional activity by Ca++-flux (intracellular calcium mobilization), 5-HT2C. The data set is classed as cell-based. Particulars: for EC50: Ca++-flux, HEK-293 cells, NA = not active, read-out: 5-HT2C human EC50; for 2A/2C ratio: ratio of EC50 5-HT2A / 5-HT2C; for 2B/2C ratio: ratio of EC50 5-HT2B / 5-HT2C. As to the method:
The functional activity of compounds for the human 5-HT2A, human 5-HT2B, and human 5-HT2C receptors as agonists, partial agonists and antagonists is determined by measurement of Ca++-flux. […] As noted above, other methods for assessing agonist/antagonist function of compounds for 5-HT2 family receptors are known in the art.
as §1, §2
Compounds are resuspended in DMSO at a stock concentration of 2-15 mM and, for a typical agonist screen, are diluted in assay buffer to a final 2× concentration of 20 μM into drugs plates. Compounds are added in duplicate to cell plates using the FlexStation II as described to identify agonists, defined as having >10% of maximal 5-HT response. […] Generally, screens are performed twice with each determination being made in duplicate.
as §3

For a further data set, the system named is 6 Hz seizure model. The experiment in a line: 6 Hz seizure model in mice. Format: in vivo. Particulars: 100 mg/kg i.p.
A further data set has as its system MOA. Particulars: in vivo in rats, tryptamine potentiation test; Kaiser / Zirkel 1962; cited from earlier work.
Setting [1] is: Ca++-flux, HEK-293 cells, NA = not active, read-out: 5-HT2B human EC50.

T1 sequence (P28223 whole entry): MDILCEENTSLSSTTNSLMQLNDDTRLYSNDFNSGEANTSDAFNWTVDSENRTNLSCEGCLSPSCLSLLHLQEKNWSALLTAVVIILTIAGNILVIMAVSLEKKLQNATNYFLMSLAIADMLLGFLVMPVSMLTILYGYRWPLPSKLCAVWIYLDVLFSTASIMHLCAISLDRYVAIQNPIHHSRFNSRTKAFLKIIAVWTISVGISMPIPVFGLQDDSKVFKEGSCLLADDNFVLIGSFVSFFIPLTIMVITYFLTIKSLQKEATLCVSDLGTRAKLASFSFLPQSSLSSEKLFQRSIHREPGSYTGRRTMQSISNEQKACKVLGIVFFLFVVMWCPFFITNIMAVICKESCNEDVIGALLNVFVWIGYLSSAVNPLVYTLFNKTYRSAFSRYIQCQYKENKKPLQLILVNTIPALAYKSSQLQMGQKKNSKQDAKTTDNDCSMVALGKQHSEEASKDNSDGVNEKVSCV

In general, EC50 refers to the concentration needed to bring the measured effect to its halfway point. Regarding “trans-(±)-(2-Phenyl-cyclopropyl)-methylamine Hydrochloride [TKU-II-17]”, the EC50 was 0.0497 µM at human 5-HT2A receptor (Hydrochloride); 0.0186 µM at human 5-HT2B receptor (Ca++-flux, HEK-293 cells, NA = not active, Hydrochloride, read-out: 5-HT2B human EC50); 0.0096 µM on human 5-HT2C receptor (Hydrochloride). Further, the 2A/2C ratio at human 5-HT2C receptor (Hydrochloride) stood at 5.18. For the same compound, the 2B/2C ratio on human 5-HT2C receptor (Hydrochloride) was 1.94. In the data set with 6 Hz seizure model (15-60 minutes after dosing), the motor impairment entry is on record as “minimal motor impairment”. The “animals protected from seizure” value in the data set with 6 Hz seizure model (after four hours) was “three of the four”.
For the compound “trans-aminomethyl-2-phenylcyclopropylamine”, the “inhibition of MOA” value in the data set on MOA was “not to inhibit MOA”.
In the case of “trans-(±)-[2-(4-Furan-2-yl-phenyl)-cyclopropyl]-methylamine Hydrochloride [TKU-II-81]”, the EC50 at human 5-HT2A receptor amounted to 281 µM; at human 5-HT2C receptor it was 0.082 µM. For the same compound, the “activity at 5-HT2B receptor” value on human 5-HT2B receptor is given as “no activity”. Moreover, the “selectivity over the 5-HT2A receptor” value on human 5-HT2C receptor (5-HT2C versus 5-HT2A) was “good selectivity”. Moreover, on human 5-HT2C receptor, the 2A/2C ratio was determined as 3431.
As for “trans-(±)-[2-(4′-Trifluoromethyl-biphenyl-4-yl)-cyclopropyl]-methylamine Hydrochloride [TKU-II-58]”, the EC50 on human 5-HT2A receptor is 3.41 µM; at human 5-HT2B receptor (setting [1]) it was 1.27 µM; on human 5-HT2C receptor, 0.226 µM. The 2A/2C ratio at human 5-HT2C receptor was 15.1. Further, the 2B/2C ratio at human 5-HT2C receptor was determined as 5.62.
One may read the Emax as the size of the effect at its maximum, as opposed to the concentration needed. With “trans-(±)-[2-(2-Bromo-phenyl)-cyclopropyl]-methylamine Hydrochloride [TKU-II-78]”, the EC50 on human 5-HT2A receptor was 0.0295 µM. For the same compound, the EC50 at human 5-HT2B receptor (setting [1]) came to 0.094 µM. On human 5-HT2C receptor, the “activity at 5-HT2C receptor” value is “partial agonist activity”, the EC50 was 0.0018 µM, the 2A/2C ratio is on record as 16.4 and the 2B/2C ratio is reported as 52.2. Also, the “Emax at the 5-HT2C receptor” value at human 5-HT2C receptor (partial agonist activity) was 58%.
As to “trans-(+)-[2-(3-Bromo-phenyl)-cyclopropyl]-methylamine Hydrochloride [TKU-II-153-1]”, on human 5-HT2A receptor, the EC50 is 0.0487 µM. In addition, the EC50 on human 5-HT2B receptor (setting [1]) stood at 0.0213 µM. Besides, on human 5-HT2C receptor, the EC50 was 0.0114 µM, the 2A/2C ratio is 4.3 and the 2B/2C ratio stood at 1.8.
For `c1ccc(CN[C@@H]2C[C@H]2c2ccccc2)cc1` (racemic) [TKU-II-30, trans-(±)-Benzyl-(2-phenyl-cyclopropyl)-amine], at human 5-HT2A receptor, the EC50 was 9790 µM. The EC50 at human 5-HT2B receptor was 10700 µM. On human 5-HT2C receptor, the EC50 amounted to 10.5 µM, the 2A/2C ratio is reported as 929.5 and the 2B/2C ratio is on record as 1020.
As to “trans-(±)-[2-(4-Bromo-phenyl)-cyclopropyl]-methylamine Hydrochloride [TKU-II-44]”, at human 5-HT2A receptor, the EC50 was 1.06 µM. Moreover, the EC50 at human 5-HT2B receptor (setting [1]) came out at 0.495 µM. Further, on human 5-HT2C receptor, the EC50 was found to be 0.18 µM, the 2A/2C ratio amounted to 5.90 and the 2B/2C ratio was 2.75.
For “trans-(−)-(2-Phenyl-cyclopropyl)-methylamine Hydrochloride [TKU-II-115]” the same measures were 1.69 µM, 1.54 µM, 0.28 µM, 6.02 and 5.49.
Take “trans-(−)-[2-(3-Bromo-phenyl)-cyclopropyl]-methylamine Hydrochloride [TKU-II-153-2]”: the EC50 on human 5-HT2A receptor is 2.27 µM. Further, the EC50 on human 5-HT2B receptor (setting [1]) turned out to be 0.251 µM. For the same compound, on human 5-HT2C receptor, the EC50 turned out to be 0.307 µM, the 2A/2C ratio is 7.4 and the 2B/2C ratio is recorded as 0.82.
The corresponding values for “trans-(±)-(2-Naphthalen-2-yl-cyclopropyl)-methylamine hydrochloride [TKU-II-42]” are 0.951 µM, 15.4 µM, 6.75 µM, 0.14 and 2.29.
